Source: patent US6548540B2, “Method of treating cancer using dithiocarbamate derivatives” (Charlotte-Mecklenburg Hospital Authority, priority 1998, dated 2003)

What was measured:
[1] = test system: Prostate carcinoma CRL 1435 (PC-3); experiment: MTT proliferation assay, prostate carcinoma PC-3; type: cell-based; conditions: Homo sapiens, treatment initially, after 48 hours, 10% FBS, read-out: Mean Percent Inhibition of Growth
Experimental: Human malignant cell lines were obtained from American Type Tissue Culture Collection (Rockville, Md.). Melanoma cells lines CRL 1585 and 1619 were cultured in RPMI 1640 (GIBCO-BRL, Life Technologies, Grand Island, N.Y.) with 10% FBS and passed with nonenzymatic Cell Dissociation Solution® (Sigma). The prostate adenocarcinoma cell line CRL 1435 (PC-3) was also cultured in RPMI 1640 with 10% FBS but passed with 0.05% trypsin and 0.53 mM EDTA. The squamous lung carcinoma NCI-H520 and the adenosquamous lung carcinoma NCI-H596 cell lines were grown in RPMI 1640 supplemented with 10% FBS, 10 mM HEPES and 1.0 mM sodium pyruvate and passed with trypsin/EDTA. The small cell lung carcinoma NCI-H82 was cultured as a suspension in RPMI 1640 with 10% FBS. All of the above were grown in a 37° C. humidified environment containing 5% CO2/air. The breast carcinoma cell line MDA-MB-453 was grown in a 37° C. humidified environment with free gas exchange with atmospheric air using Leibovitz's L-15 medium with 2 mM L-glutamine and 10% FBS and was passed with trypsin/EDTA.
The effect of disulfiram (0.15 to 5.0 μM), diethyldithiocarbamate (DDC, 1.0 μM) or PDTC (0.625 to 5.0 μM) on proliferation of malignant cell lines was studied in cultures stimulated with 10% FBS. Cell numbers were quantitated 24-72 hours later. In some experiments disulfiram or PDTC were added immediately after cells were plated. In other experiments, cells were plated and allowed to grow for 24-72 hours before fresh media with disulfiram or PDTC was added, and cell numbers were assayed 24-72 hours later. […]
Proliferation of cultured cells was quantitated using a previously reported calorimetric method based upon metabolic reduction of the soluble yellow tetrazolium dye 3-[4,5-dimethylthiazol]-2yl-2,5-diphenyl tetrazolium bromide (MTT) to its insoluble purple formazan by the action of mitochondrial succinyl dehydrogenase (See, e.g., S. J. Hirst, et al., “Quantifying proliferation of cultured human and rabbit airway smooth muscle in response to serum and platelet derived growth factor,” Am. J. Respir. Cell Mol. Biol. 7:574-581 (1992); R. Dashtaki, et al. R., supra; S. S. Brar, et al., “Requirement for reactive oxygen species in serum-induced and platelet-derived growth factor-induced growth of airway smooth muscle,” J. Biol. Chem. 274:20017-20026 (1999)). […] MTT-containing medium was removed, 0.5 ml dimethylsulfoxide (DMSO) was added to each well, and the absorbance of the solubilized purple formazan dye was measured at 540 nm. […]

cyclin A = experiment: Immunoblot for cyclin A in M1619 cells; type: cell-based, human; conditions: 24 hours
Experimental: Cells were lysed and proteins were isolated and quantitated by immunoassay as previously detailed using 2 μg/ml of primary rabbit polyclonal antibodies against human bcl-2, p53, p21^WAF1/CiP1, cyclin A and cyclin B1, and peroxidase-labeled donkey polyclonal anti-rabbit IgG. Cells were placed on ice, washed twice with cold DPBS, scraped into 0.5 ml boiling buffer (10% [vol/vol] glycerol and 2% [wt/vol] sodium dodecyl sulfate [SDS] in 83 mM Tris, pH 6.8) and sheared by four passages through a pipette. Aliquots were removed for protein determination, using the BCA protein assay (Pierce). After 10% β-mercaptoethanol and 0.05% bromophenol blue were added, lysates were boiled for 5 min and stored at -80° C. until immunoblotting was performed. Proteins in defrosted samples were separated by SDS-polyacrylamide gel electrophoresis on 12% polyacrylamide gels (15 μg protein/lane) and electrotransferred to 0.45 μm Hybond ECL nitrocellulose membranes (Amersham Life Sciences) using the wet transblot method in transfer buffer (0.025 M Tris, 0.192 M glycine, 2.6 mM SDS, and 20%[vol/vol] methanol; pH 8.8) at 100 volts for 1 hour. Blots were blocked overnight at 4° C. with blocking buffer (PBS with 0.1% Tween 20) containing 5% fat-free milk powder (Carnation, Glendale, Calif.). After rinsing 5 times for 5 minutes each in PBS containing 0.1% Tween 20, blots were incubated for 1 hour at room temperature with 2.0 μg/ml of primary antibody. After rinsing again as above, blots were incubated for 1 hr at room temperature with horseradish peroxidase (HRP)-conjugated secondary antibody diluted 1:5,000 in blocking buffer. Immunoblots were rinsed again as above and detected via an enhanced chemiluminescence method (ECL Western blotting detection system, Amersham Life Science, Buckinghamshire, England). Autoradiographic film (X-OMAT AR, Eastman Kodak, Rochester, N.Y.) was exposed to immunoblots for 10, 30, or 60 seconds to obtain satisfactory images. Since disulfiram and copper disrupt transcription factor DNA binding to CRE, their effect on expression of cyclin A was studied. […]

[2] = test system: H520 lung carcinoma cells; experiment: Trypan blue cytotoxicity, H520; type: cell-based, human; conditions: 0.625 μM disulfiram; 36 hours
Experimental: To assess for cytotoxicity, cells were plated at a density of 50,000 per well on 24 well plates and grown for 24 hours. Disulfiram was then added. After an additional 36 hours, medium was removed and replaced with DPBS containing 0.1% trypan blue. Cell death was assessed by counting the average number of trypan blue positive cells per 10×field in 5 random fields for 4 separate wells.

SMILES: CCN(CC)C(=S)SSC(=S)N(CC)CC [Disulfiram, tetraethylthiuram disulfide]
- inhibition at 0.625 µM ([1]; disulfiram 0.625 μM): 6 ± 6%
- inhibition at 1.25 µM ([1]; disulfiram 1.25 μM): 29 ± 5%
- inhibition at 2.5 µM ([1]; disulfiram 2.5 μM): 48 ± 2%
- inhibition at 5 µM ([1]; disulfiram 5.0 μM): 86 ± 2%
- cyclin A expression (cyclin A; disulfiram 5 μM alone): little effect
- reduction of cyclin A expression (cyclin A; disulfiram 5 μM plus CuSO4 1.6 μM): over two-thirds
- trypan blue positive cells [2]: 94±18 trypan blue positive cells per well
